Data reported in patent US11530216B2, “Deuterated colony stimulating factor-1 receptor (CSF-1R) inhibitors” (Genzyme Corporation, priority 2020, dated 2022).
Entries after “also recorded” stand apart in the source; their conditions may differ. Where two headings read alike, the source gives them in different places.

Assays:
[1] = test system: primary mouse microglia (wild type, SOD1); assay: CellTiter Glo 2.0 viability assay, wild-type and SOD1 primary microglia; assay type: cell-based; details: wild type and SOD1 cells
Experimental: The impact of a deuterated CSF-1R inhibitor of this disclosure on cytokine/chemokine production following CSF-1 or LPS stimulation in wild-type versus SOD1 mutant primary microglial cells was examined in the following experiments.
Methods Treatment and Stimulation of Primary Microglial Cells
Primary mouse microglia were suspended at a concentration of 5×10^5 cells/mL and 100 μL of this cell suspension was added to each well of a 96-well plate. Microglia cells were allowed to rest overnight at 37° C., 5% CO2. […] Cells were then stimulated with 100 ng/mL recombinant mouse M-CSF for 30 minutes or 10 ng/mL lipopolysaccharide for 24 hours. After stimulation, the culture supernatant was removed from each well and aliquoted into two different 96-well plates for subsequent ELISA assays.
Cell viability was determined using Promega's Cell Titer Glo Luminescent Cell Viability Assay. […] 100 μL was transferred from each well to a white plate and luminescence was read immediately on the FlexStation3 plate reader.
Primary murine microglia were plated at 50,000 cells per well and rested overnight. […] Cell viability was assessed after 24 hours utilizing Promega's Cell Titer Glo Assay Kit. Both CSF-1 and LPS stimulation induced a slight increase in the cell viability readout versus unstimulated cells (FIGS. 8A-8B and FIGS. 9A-9B).

Caco-2 efflux assay = assay type: in vitro ADME; details: human
Experimental: (§1) Caco-2 permeability and efflux assays were performed in cell-based permeability model using Caco-2/TC7 cells. For permeability assays, Caco-2/TC7 cells were seeded on to Millipore Millicell 96 and for efflux assays, 24-well plates were used. The plates with cells were ready to use between 21-25 days of culturing. Both permeability and efflux assays were performed using the TECAN automated liquid handling platform. For permeability assays, test compounds were prepared at 20 μM test concentrations in permeability assay buffer (10 mM HEPES in HBSS buffer, pH 6.5) containing 0.5% BSA. Basolateral permeability buffer (pH 7.4) contains 5% BSA. For efflux assays, test compounds were prepared at 1 μM test concentrations in permeability assay buffer (10 mM HEPES in HBSS buffer, pH 7.4) containing 0.5% BSA. For efflux assays, the basolateral permeability buffer (pH 7.4) contained 0.5% BSA. The permeability assay was initiated by adding 20 μM test solution to apical side of plate containing Caco-2/TC7 cells. In the efflux assay, 1 μM test compound was added to an apical compartment for apical to basolateral (A to B) permeability determination. For basolateral to apical (B to A) permeability determination, the test compound was added to the basolateral side. The plate was incubated for 90 min under constant shaking at 37° C. At the end of the incubation period, samples taken were analyzed using high pressure liquid chromatography with tandem mass spectrometry. For each assay, apparent permeability (Papp) and recovery was calculated from mass spectrometry data. For permeability assay, Papp values are reported as numbers×10^−07 cm/s. For efflux assays, the efflux ratio is calculated using Papp (basolateral to apical) to Papp (apical to basolateral), in addition to recovery values.

[2] = test system: MCP-1 production in BV2 murine microglial cells; assay: MCP-1 ELISA, BV2 microglial cells after CSF-1 stimulation; assay type: cell-based; details: Mus musculus, BV-2, 30 min pre-treatment, 100 ng/mL M-CSF 24 hours
Experimental: Microglia cells were allowed to rest overnight at 37° C., 5% CO2. […] After stimulation, the culture supernatant was removed from each well and aliquoted into two different 96-well plates for subsequent ELISA assays.

[3] = Human liver S-9 intrinsic clearance; assay type: in vitro ADME; details: human; for CLint scaled at 1 μM: s9
Experimental: (§2) Incubations were performed in 1 mg/mL human liver cytosol with high aldehyde oxidase (AO)/xanthine oxidase (XO) activity or 2.5 mg/mL human liver S-9 fraction with high AO/XO activity at 1 μM concentration of test compound in duplicate, and the concentration-time course of test compound depletion was determined after withdrawing samples from the incubation at assay time points followed by liquid chromatography with tandem mass spectrometry analysis. An organic solvent was used to terminate incubations.
(§3) These available known AO substrates along with the test compounds were analyzed using three in vitro systems (pooled human liver cytosol, liver S-9 fractions and human hepatocytes isolated from livers perfused with HTK media). Scaled unbound intrinsic clearances were calculated for the test compounds/new chemical entities and were compared to the in vivo unbound intrinsic clearances of the known AO substrates.

[4] = Caco-2 permeability assay; assay type: in vitro ADME; details: human; for Papp at 90 min, 20 μM: apical pH 6.5, 90 min
Experimental: as §1

CYP2D6 = CYP2D6 (Homo sapiens (Human), UniProt P10635); assay: CYP inhibition in human liver microsomes, CYP2D6; assay type: in vitro ADME; details: dextromethorphan 10 μM, 30 min, read-out: CYP inhibition mean IC50 (INH) isoform: CYP2D6 Substrate: dextromethorphan
Experimental: The objective of this assay method was to determine the inhibitory potential of test articles, in vitro, against specific cytochrome P450 (CYP) enzymes, using human liver microsomes (HLMs). The test compounds were diluted from pure DMSO stocks to a final test concentration range of 10 μM-0.07 μM in a 0.5% DMSO solution. […] After incubation, the samples were extracted, and protein precipitated in acetonitrile containing 0.1% formic acid. The samples were centrifuged to remove excess protein, and were analyzed by LDTD/MS/MS to determine IC50 values. Key concentrations of substrates were as follows: CYP2D6 Substrate—Dextromethorphan at 10 μM. CYP3A4 Substrates—Testosterone at 60 μM, and Midazolam at 2 μM. Dextromethorphan and testosterone were incubated with the test compounds for 30 minutes each. Midazolam was incubated with the test compounds for 10 minutes.

[5] = Human liver cytosol intrinsic clearance; assay type: in vitro ADME; details: human, cytosol
Experimental: as §2, §3

[6] = s9, Human Liver S-9 Intrinsic Clearance _1
[7] = s9, Human Liver S-9 Intrinsic Clearance _2
[8] = Human Liver Cytosol Intrinsic Clearance _1
[9] = Human Liver Cytosol Intrinsic Clearance _2

CYP2D6, sequence (P10635 whole entry, canonical isoform): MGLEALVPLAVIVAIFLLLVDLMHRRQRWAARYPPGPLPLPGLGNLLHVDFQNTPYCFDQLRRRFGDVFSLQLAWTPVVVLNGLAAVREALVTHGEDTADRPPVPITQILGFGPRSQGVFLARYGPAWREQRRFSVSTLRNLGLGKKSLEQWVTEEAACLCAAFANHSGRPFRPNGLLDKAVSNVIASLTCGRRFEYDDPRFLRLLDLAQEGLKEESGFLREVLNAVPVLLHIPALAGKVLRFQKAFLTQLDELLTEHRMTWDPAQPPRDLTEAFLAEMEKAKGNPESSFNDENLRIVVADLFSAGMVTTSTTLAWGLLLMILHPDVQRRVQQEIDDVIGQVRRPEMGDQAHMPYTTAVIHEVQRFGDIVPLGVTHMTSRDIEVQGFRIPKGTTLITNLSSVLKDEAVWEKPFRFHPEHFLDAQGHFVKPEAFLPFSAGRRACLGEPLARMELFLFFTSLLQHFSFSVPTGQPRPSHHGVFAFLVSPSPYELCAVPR

| Compound | cell viability ([1]; CSF-1 stimulation, 50, 100, 200 nM) | cell viability ([1]; LPS stimulation, 50, 100, 200 nM) | Papp A→B at 90 min, 1 μM (Caco-2 efflux assay) | Papp B→A at 90 min, 1 μM (Caco-2 efflux assay) | recovery at 90 min, 1 μM (Caco-2 efflux assay; read-out: Recovery A to B) | recovery at 90 min, 1 μM (Caco-2 efflux assay; read-out: Recovery B to A) | IC50 [2] | CLint scaled at 1 μM [3] | microsomal CLint at 1 μM [3, 6] | microsomal CLint at 1 μM [3, 7] | recovery at 90 min, 20 μM [4] | Papp at 90 min, 20 μM [4] | IC50 (CYP2D6) | CLint scaled at 1 μM [5] | microsomal CLint at 1 μM [5, 8] | microsomal CLint at 1 μM [5, 9] |
| --- | --- | --- | --- | --- | --- | --- | --- | --- | --- | --- | --- | --- | --- | --- | --- | --- |
| [2H]c1nc2cccnc2n1Cc1cc(OC)c2c(c1)O[C@@H](C)[C@H](c1ccc(OC)nc1)O2 [Compound 6, 3-(((2S,3S)-8-methoxy-2-(6-methoxypyridin-3-yl)-3-methyl-2,3-dihydrobenzo[b][1,4]dioxin-6-yl)methyl)-3H-imidazo[4,5-b]pyridine-2-d] | no toxic effect on microglia at the concentrations assessed; also recorded: slightly reduced the CSF-1-induced increase in cell viability | no deleterious effect on cell viability | 13.5 ×10⁻⁶ cm/s | 29.2 ×10⁻⁶ cm/s | 88% | 82.5% | 28.8 to 36.5 nM | 3.6 mL/min/kg | < 1.1 µL/min/mg | < 1.1 µL/min/mg | 73% | 37.7 ×10⁻⁶ cm/s | > 10000 nM | 3.9 mL/min/kg | 1.5 µL/min/mg | 2.2 µL/min/mg |
| COc1ccc(C2Oc3c(OC)cc(Cn4cnc5cccnc54)cc3O[C@H]2C)cn1 (stereo partly drawn) [Compound 24] | – | – | 12.5 ×10⁻⁶ cm/s | 25.6 ×10⁻⁶ cm/s | 93% | 94% | 28.8 to 36.5 nM | 9 mL/min/kg | 3.06 µL/min/mg | 2.76 µL/min/mg | 80% | 37.7 ×10⁻⁶ cm/s | > 10000 nM | 10.5 mL/min/kg | 5.1 µL/min/mg | 5 µL/min/mg |
